Source: patent US20190376110A1, “METHOD TO DETECT BACTERIAL ACTIVITY AND PATHOGENICITY WITH BIODYNAMIC SENTINELS” (Purdue Research Foundation, priority 2018, published 2019)

Legend:
[1] = tested on: Listeria pellet; conditions: short-time response within 30 minutes of dose
Experimental: (§1) Various bacterial specimens can be prepared in a pellet form. A pellet is a condensed form of bacteria which allows them to be carried and handled more efficiently. Bacteria are grown in LB medium for 4 to 12 hours. When culturing is done, the bacteria density in medium is approximately 10^8 #/mL. To make the pellet, 25 mL of bacteria medium is stored in a centrifuge tube. The medium is centrifuged by 10,000 rpm for 10 minutes (Avanti J-20 XPI). During centrifugation, a pellet is formed at the bottom of a centrifuge tube.
(§2) There are two different sample plate preparations. A monoplex plate is a plate preparation format to test a rapid response of bacteria in single wells. The time resolution of the spectrum measurement is 2 minutes. A multiplex plate is a mode for measuring slow behavior using a measuring period is 30 minutes. For the multiplex, 16 wells are measured in parallel. A plate is firmly fixed on a translational stage controlled at 37 degrees Celsius or other temperature depending on the cell type and the bacterium. The plate is covered with a semi-permeable membrane which prevents the medium from drying out while permitting air molecule exchange.
(§3) Backscattered light from a specimen forms a speckle field consisting of many speckles with sizes determined by the point-spread-function of the imaging optics, and the speckle is delivered by a 4-f system (L1 and L2, f=15 cm). […]

[2] = tested on: E. coli pellet; test: Biodynamic imaging / fluctuation spectroscopy of E. coli bacterial pellet; assay type: cell-based
Experimental: as §1, §2
Backscattered light from a specimen forms a speckle field consisting of many speckles with sizes determined by the point-spread-function of the imaging optics, and the speckle is delivered by a 4-f system (L1 and L2, f=15 cm). After the 4-f system, a lens (L3, f=5 cm) conducts Fourier transformation of the speckle and the Fourier image is formed at a Fourier plane on a Fourier-domain pixel array (such as a CCD).
To gain a more specific understanding of the effect of the nutrient shock, […] is used in a mode called […]. This breaks down the effects of a perturbation into a range of frequencies that are altered by the perturbation. Fluctuation spectroscopy is used routinely in biodynamic imaging applications for drug assays on cancer tissue. In the context of the bacterial pellets, the perturbation similarly can cause spectral changes whose specific frequencies relate to specific speeds of biological processes involved.

[3] = tested on: Salmonella pellet; test: Biodynamic imaging / fluctuation spectroscopy of Salmonella bacterial pellet; assay type: cell-based; conditions: short-time response within 30 minutes of dose
Experimental: as §1, §2, §3

[4] = tested on: Listeria monocytogenes infection of DLD-1 sentinel; test: Tissue sentinel antibiotic assay, DLD-1 spheroids infected by Listeria; assay type: cell-based
Experimental: As one example of an infection assay, a DLD-1 colon cancer cell line is prepared as a tissue fragment sentinel. DLD-1 cell lines are cultured for 24 hours and form a spheroid shape after incubation. Spheroids are immobilized within two hours by poly-D-lysine after placing spheroids on a bottom of plate.
To obtain infection spectra, bacteria in a pellet form can be re-suspended by diluting a pellet with various media (5% NaCl, growth medium, PBS etc.). The diluting process produces a uniform concentration of bacteria, and the bacterial concentration can be controlled by controlling volumes of media.
as §2
One of the most important applications of the tissue sentinels is to serve as a dynamic substrate for the study of antibiotic sensitivity and resistance. […]

## O=C(O)c1cn(C2CC2)c2cc(N3CCNCC3)c(F)cc2c1=O [Cipro, Ciprofloxacin]
[1]
  response of highest frequencies to Cipro: not affected
[2]; short-time response within 30 minutes of dose
  response of highest frequencies to Cipro: not affected
[3]
  response of highest frequencies to Cipro: not affected

## [Na+].[OH-] [NaOH]
[2]; FIG. 10
  spectrogram response of E. coli pellet to chemical agent: broad inhibition of activity
[2]; FIG. 10 legend
  low frequency response after adding chemical agents: highly suppressed

## CCO [ethanol]
[2]; 70% ethanol
  response of highest frequency: relatively unaffected

## CC1(C)S[C@@H]2[C@H](NC(=O)Cc3ccccc3)C(=O)N2[C@H]1C(=O)O [penicillin, penicillin G]
[4]; L. mono, penicillin alone
  time after antibiotic at which weak infection signal emerges: about 8 hours
[4]; penicillin alone without streptomycin, FIG. 22
  inhibition of L. mono strain by antibiotic: not completely inhibited
